Earlier results in patent US20240009323A1, “METHODS OF TREATING COLON CANCER USING NANOPARTICLE MTOR INHIBITOR COMBINATION THERAPY” (Abraxis BioScience, LLC, priority 2017, published 2024).

Columns and labels:
[1] = system: ABCB1/ABCG2
[2] = in vivo

## COc1ccc(COc2cc3oc(=O)c4cc(C(C)O)ccc4c3cc2OC)cc1 (centres unmarked) [Palomid 529]
[1]
  affinity for ABCB1/ABCG2: lacks affinity
[2]
  brain penetration: good brain penetration
